Tests used:
[1] = system: mice with chronic constriction nerve injury (CCI); assay: Paw withdrawal threshold (von Frey filaments) in CCI mice; type: in vivo
Protocol: The materials used were (as also indicated in FIGS. 1 and 2): • Vehicle: 0.5% hydroxy-propyl-methyl-cellulose (HPMC) in water, 5 ml/kg, p.o.; • 50 mg/kg, 100 mg/kg, 150 mg/kg and 200 mg/kg: ESL at 50, 100, 150 and 200 mg/kg, p.o.; • GP 100 mg/kg: gabapentin 100 mg/kg, p.o.
The potential analgesic effects of orally dosed ESL was investigated at doses of 50, 100, 150 and 200 mg/kg, on the paw withdrawal threshold (PWT) and these effects compared with those of the dose vehicle and gabapentin, the latter at 100 mg/kg, in a mouse model of chronic constriction nerve injury (CCI).
Each animal received a single oral dose of either ESL (50, 100, 150, or 200 mg/kg), or gabapentin (100 mg/kg in saline) or vehicle (5 ml/kg). Behavioural testing was then performed twice, at approximately 60 and 120 minutes post-dose, to investigate the effect of treatments.

[2] = system: peripheral nerve filaments of CCI mice; assay: Ectopic discharge of peripheral nerve filaments in CCI mice (electrophysiological recording); type: in vivo; details: for ectopic discharge firing rate: 5 preparations
Description: Adult male BL CB F1 mice, weighing 25-30 g at the time of surgery and 26-38 g at the time of electrophysiological experiments, were used. The baseline paw withdrawal threshold (PWT) was examined using a series of graduated von Frey hairs (see below) on 3 consecutive days before surgery and re-assessed on the 7th and on the 14th days after surgery, before electrophysiological recording. The animals were killed by an overdose of pentobarbitone on completion of the study. The chronic constriction injury (CCI) model was prepared following the standard protocols described previously (Bennett and Xie, 1988). Mice were anaesthetised and the lateral side of the left thigh was shaved and sterilized with 75% ethanol. A small incision of approximately 0.5 cm was made parallel to the femur. The muscle was carefully separated to expose the sciatic nerve. Three loose ligatures were placed on the sciatic nerve with 5-0 suture silk thread at approximately 1 mm intervals. The wound was closed in layers with suture silk 4-0 and the animals were placed in a recovery chamber with the temperature controlled and set at 30° C. A dose of amoxicillin (0.02 mL, 3 mg) was routinely injected i.p. after surgery to prevent infection. The animals were returned to their home cages after complete recovery of consciousness and freedom of movement. For the first 2 days after surgery, the animals were closely monitored at least twice daily and subsequently, at least once daily until compound testing. Each animal was placed in a perspex cage on a metal mesh. A series of von Frey filaments (0.07 g, 0.16 g, 0.4 g, 0.6 g, 1.0 g) were applied to the plantar surface of the hind-paw, from below. The filaments were applied in ascending order (starting with the lowest force 0.07 g) to both ipsilateral and contralateral hind-paws. Each filament was applied 10 times with a protocol of one second on, one second off. The PWT was defined as being the lowest force required to elicit at least 5 paw withdrawal responses out of 10 trials. The baseline PWT was tested for 3 consecutive days before surgery and re-assessed on the 7th and 14th days after surgery to monitor the development of mechanical allodynia. Only those mice showing significant mechanical allodynia (PWT≦0.2 g) were selected for subsequent electrophysiological experiments. The mice were re-anaesthetised and the sciatic nerve was exposed via a dorsal incision on the hind-limb. The skin was secured (stitched) to a metal O-ring to form an oil pool for recording nerve activity. A reference electrode was connected to the metal O-ring to form a closed circuit with the nerve recording electrode. To record ectopic discharge generated from the intact animal, under a microscope, the small bundles of sural nerve (distal to the ligated area) were repeatedly teased and looped onto a unipolar silver electrode for examination. To facilitate the recording of ectopic discharge generated from the neuroma (ligated area) or from the DRG, the sciatic nerve was separated carefully from the surrounding connective tissues, sectioned at a more proximal site leaving the injured area intact or near the injured area leaving the more proximal part intact. A small bundle of nerve filaments were teased from the sciatic nerve from either the distal or proximal cut end of the sciatic nerve, to record neuroma-generated ectopic discharge, or from the proximal cut end to record DRG-generated ectopic discharge. The filament was looped on to a unipolar silver wire recording electrode with an indifference electrode connected to the connective tissues nearby, allowing the spontaneous activity generated from either the ligated area (sensitized axons) or from DRG (somata) to be recorded. The electrical signals were then recorded through a CED micro-1401 interface to a PC for later off-line analysis. Recording from a fibre with spontaneous activity was undertaken for at least 10 min for control and 40 min after either vehicle or ESL administration. […]

SMILES: CC(=O)O[C@H]1Cc2ccccc2N(C(N)=O)c2ccccc21 [ESL, S-(−)-10-acetoxy-10,11-dihydro-5H-dibenz/b,f/azepine-5-carboxamide]
- PWT in the contralateral limbs vs vehicle group ([1]; 50 mg/kg group on 14th to 16th day, P<0.05): significantly higher
- potency and efficacy compared with reference compound ([1]; CCI mice, PWT): potency and efficacy similar to the reference compound, gabapentin
- PWT in the ipsilateral hindpaw ([1]; ESL 50, 100, 150, 200 mg/kg p.o., single dose, tested about 60 and 120 min post-dose): dose-dependently increased the PWT
- PWT in the contralateral side ([1]; ESL 50-200 mg/kg p.o., vs vehicle): did not significantly affect the PWT
- duration of the effect on PWT after dosing ([1]; ESL p.o., ipsilateral hindpaw): more than 2 hours
- ectopic discharge, % of control ([2]; DRG origin, ESL 100 mg/kg i.p., P<0.05 vs vehicle): 58.43±13.21 % of control
- ectopic discharge average firing rate ([2]; DRG origin, ESL 100 mg/kg i.p., control 514.3±141.0, 6 preparations): 274.4±117.1 imps/min
- ectopic discharge, % of control level ([2]; intact CCI mice, ESL 100 mg/kg ip, 30-35 min after injection, P<0.001 vs control): 26.6±10.6 % of control
- ectopic discharge firing rate ([2]; intact CCI mice, ESL 100 mg/kg ip, 30-35 min after injection, control 2048.0±391.6, mean±SEM): 699.8±339.7 imps/min
- ectopic discharge firing rate ([2]; neuroma origin (sciatic nerve sectioned proximally), ESL 100 mg/kg ip, 30 min after injection, control 1390.6±378.5): 643.5±249.2 imps/min
- ectopic discharge, % of control levels ([2]; neuroma origin, ESL 100 mg/kg ip, 30 min after injection, P<0.01): 36.5±12.3 % of control

Reference: US9855277B2, “Use of 5H-dibenz/b,f/azepine-5-carboxamide derivatives for treating fibromyalgia” (BIAL—PORTELA & CA, S.A., priority 2009, dated 2018)
